Experimental data: publication PMC6009965, “α-Glucosidase inhibition by flavonoids: an in vitro and in silico structure–activity relationship study” (Journal of Enzyme Inhibition and Medicinal Chemistry, 2017)
Read-outs that look alike come from different tables or passages of the source.

Tests used:
[1] = target: T1, yeast α-glucosidase (Saccharomyces cerevisiae, UniProt P53341); assay: Inhibitory kinetic analysis (Michaelis–Menten, Lineweaver–Burk plots); type: biochemical; conditions: for Type of inhibition: pNPG 300, 600 and 1200 μM
T1 construct: purchased Sigma-Aldrich Co. LLC (St. Louis, MO)
T1 sequence (P53341 whole entry): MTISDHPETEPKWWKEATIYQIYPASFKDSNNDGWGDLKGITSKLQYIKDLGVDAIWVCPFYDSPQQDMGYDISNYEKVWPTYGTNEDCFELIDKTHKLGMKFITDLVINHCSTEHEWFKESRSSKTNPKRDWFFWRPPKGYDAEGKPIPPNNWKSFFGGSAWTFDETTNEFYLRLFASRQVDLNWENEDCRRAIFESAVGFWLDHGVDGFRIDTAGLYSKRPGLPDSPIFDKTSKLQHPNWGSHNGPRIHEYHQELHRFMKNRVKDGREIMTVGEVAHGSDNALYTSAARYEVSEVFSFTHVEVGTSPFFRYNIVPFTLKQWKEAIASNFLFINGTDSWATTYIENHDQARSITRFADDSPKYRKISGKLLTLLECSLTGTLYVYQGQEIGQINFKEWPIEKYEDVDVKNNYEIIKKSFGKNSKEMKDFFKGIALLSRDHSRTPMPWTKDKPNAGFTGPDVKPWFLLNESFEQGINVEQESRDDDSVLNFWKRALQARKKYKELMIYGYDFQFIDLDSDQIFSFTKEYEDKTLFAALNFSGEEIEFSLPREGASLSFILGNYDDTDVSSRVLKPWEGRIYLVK
Procedure: Briefly, the enzyme (0.05 U/mL), dissolved in 100 mM phosphate buffer (pH 6.8), was pre-incubated at 37 °C with the above mentioned flavonoids in a 96-well plate, for 5 min. In sequence, pNPG was added (300, 600 and 1200 μM) and incubated in the reaction mixture at 37 °C for 30 min.
The study of the inhibition type (competitive, uncompetitive, non-competitive or mixed) of the tested flavonoids was performed using the nonlinear regression Michaelis–Menten enzyme kinetics and the corresponding Lineweaver–Burk double reciprocal plots for each concentration of the inhibitor and substrate. The Ki values were calculated with GraphPad Software 6.0 by plotting the reciprocal of maximum velocity (1/V max) (y axis) against the flavonoid concentrations (x axis) (Table 2)[38–40].
The type of inhibition parameters were all calculated with GraphPad Software 6.0. The obtained results represent at least three independent experiments.

[2] = system: α-glucosidase; conditions: cited from earlier work; for Activity against α-glucosidase catalytic activity: ref Gao et al. 27
[3] = target: T2, α-glucosidase from Saccharomyces cerevisiae (Saccharomyces cerevisiae, UniProt P53341); assay: biochemical
T2 construct: purchased Sigma-Aldrich Co. LLC (St. Louis, MO)
T2 sequence (P53341 whole entry): as above
Procedure: Compounds A1, A2, A3, A4, A5, A6, B1, B2, B3, B4, C1, C2, C3, C4, C5, C6, C8, C9, D1 (chrysin), D2 (galangin) and D5 were obtained from Indofine Chemical Company, Inc. (Hillsborough, NJ). The flavonoids C7, C10, C11, C12, C13, D10, D11, D12, D13, D14 and D17 were synthesised as previously described. For the enzymatic assays, flavonoids were dissolved in DMSO (the final concentration of DMSO in the reactional mixture was 4.76%).
The α-glucosidase activity was measured using a method of Tadera et al.[31] slightly modified. The assay was carried out by monitoring the α-glucosidase-mediated transformation of the substrate pNPG into α-D-glucose and p-nitrophenol, at 405 nm. Briefly, in a 96-well plate, the enzyme (0.05 U/mL), dissolved in 100 mM phosphate buffer (pH 6.8), was pre-incubated at 37 °C for 5 min with the flavonoids (0–200 μM). In sequence, pNPG was added (600 μM) and incubated in the reaction mixture at 37 °C for 30 min. The enzymatic reaction was monitored spectrophotometrically, in a microplate reader (Synergy HT, BIO-TEK), by measuring the absorbance at 405 nm. The obtained values correspond to the slope measured between 5 and 20 min. […] The obtained results represent at least three independent experiments.

[4] = read-out: Inhibitory activity at the highest tested concentration
[5] = enzyme 0.05 U/mL, pNPG 600 μM, pH 6.8, 37 °C, mean ± SEM, read-out: IC50
[6] = mean ± SEM, from 1/Vmax vs flavonoid concentration, read-out: Ki

In the case of `C[C@H]1O[C@H](O[C@H]2[C@H](O)[C@@H](O)[C@@H](O[C@H]3[C@H](O)[C@@H](O)C(O)O[C@@H]3CO)O[C@@H]2CO)[C@H](O)[C@@H](O)[C@@H]1N[C@H]1C=C(CO)[C@@H](O)[C@H](O)[C@H]1O` (stereo partly drawn) [Acarbose, reference compound], the Type of inhibition [1] is given as “Competitive”, the Type of inhibition ([2]; ref Kim et al. 68, Lopez et al. 69) is given as “competitive” and the Type of inhibition ([2]; ref Son et al. 70) is given as “mixed type of inhibition”.

For `O=c1cc(-c2ccccc2)oc2ccccc12` [Compound A1, Flavone], the “Inhibitory activity against α-glucosidase (in words)” value (from here on “Inhibitory activity”) [3] was “not able to inhibit α-glucosidase” and the inhibition at 200 µM [3, 4] was less than 20%.

For `O=c1cc(-c2cccc(O)c2)oc2ccccc12` [Compound A2], the “Inhibitory activity” value [3] was “low or no inhibitory activity” and the inhibition at 200 µM [3, 4] was less than 20%.

With `O=c1cc(-c2ccc(O)cc2)oc2ccccc12` [Compound A3] the “Inhibitory activity” value [3] was “low or no inhibitory activity” and the inhibition at 200 µM [3, 4] was less than 20%.

For `O=c1cc(-c2ccc(O)c(O)c2)oc2ccccc12` [Compound A4], the “Inhibitory activity” value [3] was “low or no inhibitory activity” and the inhibition at 200 µM [3, 4] was 32 ± 4%.

For `O=c1c(O)c(-c2ccc(O)c(O)c2)oc2ccccc12` [Compound A5], the Ki [1] was 41 ± 7 µM, the Type of inhibition [1] was “Mixed” and the IC50 [3, 5] was 54 ± 3 µM.

`COc1ccc(-c2oc3ccccc3c(=O)c2O)cc1OC` [Compound A6] showed an IC50 [3, 5] greater than 100 µM and an inhibition at 100 µM [3, 4] of less than 20%.

For `O=c1cc(-c2ccccc2)oc2cccc(O)c12` [Compound B1], the inhibition at 200 µM [3, 4] is listed as less than 20% and the “Activity against α-glucosidase catalytic activity” value [2] is listed as “no activity”.

`O=c1cc(-c2cccc(O)c2)oc2cccc(O)c12` [Compound B2] showed an inhibition at 200 µM [3, 4] of 31 ± 4%.

In the case of `O=c1cc(-c2ccc(O)cc2)oc2cccc(O)c12` [Compound B3], the Ki [1] is reported as 127 ± 9 µM, the Type of inhibition [1] is reported as “Mixed” and the IC50 [3, 5] is reported as 66 ± 2 µM.

With `O=c1cc(-c2ccc(O)c(O)c2)oc2cccc(O)c12` [Compound B4] the IC50 [3] was 66 ± 7 µM.

For `O=c1cc(-c2ccccc2)oc2cc(O)ccc12` [Compound C1], the IC50 [3] is given as greater than 200 µM, the inhibition at 200 µM [3, 4] is given as less than 20% and the “Activity against α-glucosidase catalytic activity” value [2] is given as “no activity”.

Work on `O=c1cc(-c2cccc(O)c2)oc2cc(O)ccc12` [Compound C2] yielded an IC50 [3, 5] of 53 ± 4 µM.

Compound `O=c1cc(-c2ccc(O)cc2)oc2cc(O)ccc12` [Compound C3] has an IC50 [3, 5] of roughly 200 µM.

Compound `O=c1c(O)c(-c2cccc(O)c2)oc2cc(O)ccc12` [Compound C4] has an IC50 [3, 5] of 42 ± 4 µM.

Work on `O=c1c(O)c(-c2ccc(O)cc2)oc2cc(O)ccc12` [Compound C5] yielded an IC50 [3, 5] of 96 ± 10 µM.

With `O=c1cc(-c2ccc(O)c(O)c2)oc2cc(O)ccc12` [Compound C6] the IC50 [3, 5] was 95 ± 7 µM.

In the case of `O=c1c(O)c(-c2ccc(O)c(O)c2)oc2c(O)c(O)ccc12` [Compound C7], the Ki [1] is reported as 6.5 ± 0.2 µM, the Type of inhibition [1] is reported as “Competitive” and the IC50 [3, 5] is reported as 7.6 ± 0.4 µM.

Work on `COc1cccc(-c2oc3cc(OC)ccc3c(=O)c2O)c1` [Compound C8] yielded an inhibition at 100 µM [3, 4] of 22 ± 2%.

For `COc1ccc(-c2oc3cc(OC)ccc3c(=O)c2O)cc1` [Compound C9], the inhibition at 200 µM [3, 4] was less than 20%.

`COc1ccc2c(=O)c(O)c(-c3ccc(O)c(O)c3)oc2c1OC` [Compound C10] gave an IC50 [3] of 86 ± 6 µM.

In the case of `COc1ccc(-c2oc3c(O)c(O)ccc3c(=O)c2O)cc1OC` [Compound C11], the inhibition at 200 µM [3, 4] is reported as 31 ± 3%.

In the case of `COc1ccc2c(=O)c(O)c(-c3ccc(OCc4ccccc4)c(OCc4ccccc4)c3)oc2c1OC` [Compound C12], the inhibition at 200 µM [3, 4] is reported as less than 20%.

Work on `COc1ccc(-c2oc3c(OCc4ccccc4)c(OCc4ccccc4)ccc3c(=O)c2O)cc1OC` [Compound C13] yielded an inhibition at 200 µM [3, 4] of 32 ± 3%.

With `O=c1cc(-c2ccccc2)oc2cc(O)cc(O)c12` [Compound D1, Chrysin] the “Inhibitory activity” value [3] was “no inhibitory effect” and the inhibition at 50 µM [3, 4] was less than 20%.

Work on `O=c1c(O)c(-c2ccccc2)oc2cc(O)cc(O)c12` [Compound D2, Galangin] yielded an inhibition at 200 µM [3, 4] of 21 ± 3%.

For `O=c1cc(-c2ccccc2)oc2cc(O)c(O)c(O)c12` [Compound D3, Baicalein], the IC50 [3, 5] was 44 ± 3 µM.

Compound `O=c1cc(-c2cccc(O)c2)oc2cc(O)cc(O)c12` [Compound D4] has an IC50 [3] of 89 ± 3 µM.

With `O=c1cc(-c2ccc(O)cc2)oc2cc(O)cc(O)c12` [Compound D5, Apigenin] the IC50 [3] was 82 ± 6 µM.

In the case of `O=c1cc(-c2ccc(O)c(O)c2)oc2cc(O)cc(O)c12` [Compound D7, Luteolin], the IC50 [3, 5] is reported as 46 ± 6 µM.

In the case of `O=c1c(O)c(-c2ccc(O)c(O)c2)oc2cc(O)cc(O)c12` [Compound D8, Quercetin], the Type of inhibition [1] is listed as “Competitive” and the Type of inhibition [2] is listed as “mixed type inhibitor”.

`O=c1c(O)c(-c2ccc(O)cc2O)oc2cc(O)cc(O)c12` [Compound D9, Morin] showed an IC50 [3] of 32 ± 2 µM.

With `O=c1c(Cl)c(-c2ccc(O)c(O)c2)oc2cc(O)cc(O)c12` [Compound D10] the Ki [1, 6] was 51 ± 6 µM, the Type of inhibition [1] was “Non-competitive” and the IC50 [3] was 21 ± 2 µM.

Compound `O=c1cc(-c2ccc(O)c(O)c2)oc2cc(O)c(Cl)c(O)c12` [Compound D11] has an IC50 [3, 5] of roughly 200 µM.

In the case of `O=c1cc(-c2ccc(O)c(O)c2)oc2c(Cl)c(O)cc(O)c12` [Compound D12], the IC50 [3] is reported as 55 ± 2 µM.

With `O=c1c(Cl)c(-c2ccc(O)c(O)c2)oc2c(Cl)c(O)cc(O)c12` [Compound D13] the IC50 [3] was 43 ± 3 µM.

Compound `O=c1cc(-c2ccc(O)c(O)c2)oc2c(Cl)c(O)c(Cl)c(O)c12` [Compound D14] has an IC50 [3] of 34 ± 3 µM.

`COc1ccc(-c2cc(=O)c3c(O)cc(O)cc3o2)cc1` [Compound D16, Acacetin] gave an IC50 [3, 5] of roughly 200 µM.

`COc1ccc(-c2cc(=O)c3c(O)cc(O)cc3o2)cc1OC` [Compound D17] showed an inhibition at 200 µM [3, 4] of less than 20%.

For `C[C@@H]1O[C@@H](OC[C@H]2O[C@@H](Oc3c(-c4ccc(O)c(O)c4)oc4cc(O)cc(O)c4c3=O)[C@H](O)[C@@H](O)[C@@H]2O)[C@H](O)[C@H](O)[C@H]1O` [Compound D18, Rutin], the “Inhibitory activity” value [3] was “low activity” and the inhibition at 200 µM [3, 4] was less than 20%.

In the case of `O=C1C[C@@H](c2ccc(O)cc2)Oc2cc(O)cc(O)c21` [Compound E1, Naringenin], the inhibition at 200 µM [3, 4] is reported as 45 ± 3%.

Work on `O=C1C[C@@H](c2ccc(O)c(O)c2)Oc2cc(O)cc(O)c21` [Compound E2, Eriodictyol] yielded an inhibition at 200 µM [3, 4] of 35 ± 4%.

For `O=C1c2c(O)cc(O)cc2OC(c2ccc(O)c(O)c2)C1O` (stereo not drawn) [Compound E3, Taxifolin], the Ki [1, 6] was 347 ± 15 µM, the Type of inhibition [1] was “Non-competitive” and the IC50 [3] was roughly 200 µM.
